The record followed here is patent publication US5723616A, “Process for the preparation of a growth hormone secretagogue” (priority 1996, dated 1998).

In brackets after ≈: the same amount, converted by molar mass. Where two headings read alike, the source gives them in different places.

Usually solubility stands for how much of the substance goes into solution per volume.

The nature of data set [1]: solubility of the sulfonamide in various mixtures of toluene and n-PrOH, determined by HPLC assay. The format is physicochemical. The settings on record: organic solvent or mixture, read-out: solubility of 1. The method, then: The temperature of both the head and pot rose from 94° C. to 98° C. during the solvent switch. Toluene and n-PrOH form an azeotrope boiling at 97.2° C. composed of 47.5% toluene and 52.5% n-PrOH. The mixture was allowed to cool gradually to 20° C. over 3h and aged for 12 h. […] The solubility of the sulfonamide in various mixtures of toluene and n-PrOH has been determined by HPLC assay: […]

A short description of data set [2]: hygroscopicity observed at filtration of the wet crystals. The format is physicochemical. The settings on record: wet crystals during filtration (N2 essential). The method, then: The volume of the solution of 15 from the previous step was adjusted to 60 L with ethyl acetate and EtOH (4.8 L) was added. The MsOH (316 mL) was added in 3 L of EtOAc at 45° C. To the deep red homogeneous solution was added 496 g of the title compound Form I seed (10% seed based on the weight of the free amine was employed). The temperature rose to ca. 48° C. and the reaction was aged at 52° C. for 1.5 hours. Analysis indicated complete conversion to the title compound (Form I). (At less than 10% seed longer age (>3 hours) was required). The slurry was allowed to cool to 20° C. overnight and was filtered in a centrifuge under N2. The cake was washed with 20 L of 8% EtOH in EtOAc. […] The batch was dried at 35° C. under vacuum to afford 2.7 Kg (56% overall yield) of the title compound (Form I) (99.9 A % purity; <0.1% enantiomer).

Turning to `CS(=O)(=O)N1CC2(CCN(C(=O)OCc3ccccc3)CC2)c2ccccc21` [Compound 1, CBZ-Spiroindoline-methanesulfonamide], the solubility was determined as 3020 µg/mL (≈ 7.54 mM) in data set [1] (5% toluene in n-proh); 4230 µg/mL (≈ 10.6 mM) in data set [1] (10% toluene in n-proh); 7510 µg/mL (≈ 18.8 mM) in data set [1] (20% toluene in n-proh); 10300 µg/mL (≈ 25.7 mM) in data set [1] (25% toluene in n-proh); 2360 µg/mL (≈ 5.89 mM) in data set [1] (0% toluene in n-PrOH).

Turning to `CC(C)(N)C(=O)N[C@H](COCc1ccccc1)C(=O)N1CCC2(CC1)CN(S(C)(=O)=O)c1ccccc12` [Form I, N-[1(R)-[(1,2-dihydro-1-methanesulfonyl-spiro[3H-indole-3,4'-piperdin]-1'-yl)carbonyl]-2-(phenylmethyl-oxy)ethyl]-2-amino-2-methylpropanamide methanesulfonate], the “hygroscopicity of the wet crystals” value in data set [2] was “very hygroscopic”.
